The record followed here is patent EP1144402B1, “SUBSTITUTED OXIMES AND HYDRAZONES AS NEUROKININ ANTAGONISTS” (SCHERING CORPORATION, priority 1998, dated 2000).

One assay addresses T1, NK2 receptor (Homo sapiens, UniProt P21452).
T1 sequence (P21452 1-398): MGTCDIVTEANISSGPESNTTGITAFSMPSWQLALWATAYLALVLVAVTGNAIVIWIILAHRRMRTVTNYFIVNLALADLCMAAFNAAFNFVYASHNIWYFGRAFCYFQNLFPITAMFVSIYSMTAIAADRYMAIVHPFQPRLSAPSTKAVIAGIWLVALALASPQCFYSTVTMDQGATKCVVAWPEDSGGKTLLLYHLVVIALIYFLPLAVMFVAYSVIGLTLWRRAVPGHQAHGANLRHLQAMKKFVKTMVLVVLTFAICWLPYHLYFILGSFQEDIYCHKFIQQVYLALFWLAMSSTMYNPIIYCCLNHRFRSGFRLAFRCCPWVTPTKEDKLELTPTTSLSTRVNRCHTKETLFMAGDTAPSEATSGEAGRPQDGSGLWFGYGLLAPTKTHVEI
The assay is described as follows: neurokinin receptor binding assay (NK2). The text has this: (§1) The in vitro and in vivo activity of the compounds of formula I can be determined by various procedures known in the art, such as a test for their ability to inhibit the activity of the NK1 agonist Substance P, an isolated hamster trachea NK2 assay, a test of the effect of NK1 antagonists on Substance P-induced airway microvascular leakage, measurement of NK2 activity in vivo in guinea pigs, measurement of bronchoconstriction due to NKA, and neurokinin receptor binding assay(s). NK3 activity is determined by following a procedure similar to that described in the literature, e.g., Molecular Pharmacol., 48 (1995), p. 711-716. Typical procedures for determining NK1 and NK2 activity are described in U.S. 5,696,267, incorporated herein by reference.
(§2) % Inhibition of neurokinin agonist activity is the difference between the percent of maximum specific binding (MSB) and 100%. The percent of MSB is defined by the following equation, wherein "dpm" is disintegrations per minute: % MSB =((dpm of unknown) - (dpm of nonspecific binding))/((dpm of total binding) - (dpm of nonspecific binding))X 100 [formula]
Using the test procedures known in the art, the following data (% inhibition or Ki) were obtained for preferred and/or representative compounds of formula I: […]

Another assay concerns the target NK1 receptor (Homo sapiens, UniProt P25103). The assay is described as follows: neurokinin receptor binding assay (NK1).
Text: as §1, with “711-716.” for “711-716. Typical procedures for determining NK1 and NK2 activity are described in U.S. 5,696,267, incorporated herein by reference.”
as §2

pKi: −log10 of the molar value.

Chain of NK1 receptor (P25103 whole entry, species assumed): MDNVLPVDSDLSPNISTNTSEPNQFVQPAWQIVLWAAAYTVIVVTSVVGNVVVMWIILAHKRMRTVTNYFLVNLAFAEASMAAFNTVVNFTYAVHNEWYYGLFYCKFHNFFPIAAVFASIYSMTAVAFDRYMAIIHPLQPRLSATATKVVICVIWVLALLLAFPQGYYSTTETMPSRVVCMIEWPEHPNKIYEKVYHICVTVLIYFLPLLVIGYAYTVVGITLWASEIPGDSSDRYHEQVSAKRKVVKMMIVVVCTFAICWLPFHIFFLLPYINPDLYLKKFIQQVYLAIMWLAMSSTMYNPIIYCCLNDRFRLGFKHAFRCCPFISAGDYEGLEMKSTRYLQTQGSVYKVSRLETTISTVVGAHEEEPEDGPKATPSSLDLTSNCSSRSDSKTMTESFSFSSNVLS

Usually pKi stands for the Ki on a negative log10 scale, so that one unit is a factor of ten. Lower therefore signals a high Ki. Turning to `CO/N=C(\CN(C)C(=O)c1cc(Cl)cc(Cl)c1)[C@H](CCN1CCC(N2CCCN(CC(C)(C)O)C2=O)CC1)c1ccc(Cl)c(Cl)c1` [Example 6K], the pKi at NK2 receptor is 9.10. For the molecule `CO/N=C(\CN(C)C(=O)c1cc(Cl)cc(Cl)c1)[C@H](CCN1CCC(N2CCCN(Cc3nn[nH]n3)C2=O)CC1)c1ccc(Cl)c(Cl)c1` [Example 6S], the pKi at NK1 receptor is 9.00; on NK2 receptor, 9.05. The matching figures for `CO/N=C(\CN(C)C(=O)c1cc(Cl)cc(Cl)c1)[C@H](CCN1CCC(n2c(=O)[nH]c3ccccc32)CC1)c1ccc(Cl)c(Cl)c1` [Example 18A]: 8.92 and 9.00.
